# Assay results: patent EP0894794A1, “Optical isomers of cloperastine” (AESCULAPIUS FARMACEUTICI S.r.l., priority 1997, dated 1999)
# Marks after values point to notes of the source that are not given here.
# How the values were obtained:
# mouse [1] = assay: test of potentiation of pentylenetetrazole (interaction with central stimulants); details: fendizoate, dose 150 mg/kg; for % variation: mean score vs. vehicle controls; for Mean score: scores 0 to 4 after intraperitoneal 50 mg/kg PTZ, mouse, 20 animals
# mouse [2] = assay: narcosis from hexobarbital (interaction with central depressants); details: fendizoate; for Duration of sleep: mean ± SD after intraperitoneal 80 mg/kg sodium hexobarbital, mouse; for % variation: sleeping time vs. vehicle controls
# guinea pigs = assay: citric acid aerosol coughing test; details: for ED50 / inhibition at 1 mg/kg / inhibition at 5 mg/kg / inhibition at 10 mg/kg: Cavia porcellus, inhaled or nasal; for inhibition at 1 mg/kg / inhibition at 5 mg/kg / inhibition at 10 mg/kg: read-out: inhib. %; for coughs in 3 min mean + SD: fendizoate, guinea pigs, 8 animals
# mouse [3] = assay: acute toxicity (LD50), mouse; details: HCl, female mouse
# rat = assay: acute toxicity (LD50), rat; details: HCl, female rat
# [4] = acute toxicity (LD50), mouse; details: mouse, in vivo, LD50 and 95% conf. lim., HCl, female mouse
# [5] = acute toxicity (LD50), rat; details: rat, in vivo, ip, LD50 and 95% conf. lim., HCl; female rat; intraperit.
SMILES,Mean score (mouse [1]),Duration of sleep (mouse [2]; dose 5 mg/kg) [min],Duration of sleep (mouse [2]; dose 15 mg/kg) [min],Duration of sleep (mouse [2]; dose 50 mg/kg) [min],Duration of sleep (mouse [2]; dose 150 mg/kg) [min],ED50 (guinea pigs) [mg/kg],inhibition at 1 mg/kg (guinea pigs) [%],inhibition at 5 mg/kg (guinea pigs) [%],inhibition at 10 mg/kg (guinea pigs) [%],coughs in 3 min mean + SD (guinea pigs; dose 1 mg/kg),coughs in 3 min mean + SD (guinea pigs; dose 5 mg/kg),coughs in 3 min mean + SD (guinea pigs; dose 10 mg/kg),% variation (mouse [1]; 150 mg/kg) [%],"% variation (mouse [2]; dose 5 mg/kg, 5 mg/kg)","% variation (mouse [2]; dose 15 mg/kg, 15 mg/kg)","% variation (mouse [2]; dose 50 mg/kg, 50 mg/kg)","% variation (mouse [2]; dose 150 mg/kg, 150 mg/kg)",LD50 and 95% conf. lim. (rat; oral),further results
"Clc1ccc(C(OCCN2CCCCC2)c2ccccc2)cc1 (racemic) [DL-CLO, DL-cloperastine]",2.45**(°°),53.80 ± 9.05,45.50 ± 6.39,25.80 ± 7.30,10.40 ± 4.18,7.22,13.5,41.9,57.2,57.7 ± 8.21,38.4 ± 5.33,28.3 ± 4.50,–,–,–,–,–,–,% variation (mouse [1]): 122.7%; % variation (mouse [2]; dose 5 mg/kg): +61.1**(°°) %; % variation (mouse [2]; dose 15 mg/kg): +36.2**(°) %; % variation (mouse [2]; dose 50 mg/kg): -22.8(°°) %; % variation (mouse [2]; dose 150 mg/kg): -68.9** %
"Clc1ccc(C(OCCN2CCCCC2)c2ccccc2)cc1 (single isomer, unassigned) [D-CLO, D(+) cloperastine]",3.15**(°°),71.70 ± 10.92,45.80 ± 8.67,22.40 ± 6.37,8.90 ± 3.01,–,–,–,–,–,–,–,186.4,+114.7**(°°) %,+37.1*(°) %,-32.9*(°°) %,-73.4**(°°) %,602 (474-764) mg/kg,LD50 and 95% conf. lim. (mouse [3]; intraperit.): 96 (74.4-123.8) mg/kg; LD50 and 95% conf. lim. (mouse [3]; oral): 269 (219-331) mg/kg; LD50 and 95% conf. lim. (rat; intraperit.): 106 (82-138) mg/kg
"Clc1ccc(C(OCCN2CCCCC2)c2ccccc2)cc1 (single isomer, unassigned) [L-CLO, L(-) cloperastine]",1.50,38.90 ± 7.89,67.60 ± 16.75,43.10 ± 9.07,18.70 ± 2.87,4.23,32.7,45.4,66.3,44.5 ± 8.65,36.1 ± 5.24,22.3 ± 5.20,36.4,+16.5%,+102.3** %,+29.0(°) %,-44.1** %,1226 (981-1532) mg/kg,"LD50 ([4]; ip, intraperit.): 171 mg/kg; LD50 ([4]; po): 512 mg/kg; LD50 [5]: 195 mg/kg"
